In general, IC70 refers to the concentration at which the effect reaches the 70% level.

Experimental findings from patent US10045983B2, “Heteroaryl pyridone and aza-pyrodine compounds” (Genentech, Inc., priority 2011, dated 2018) are described below.

The assay can be described thus: CD69 Whole Blood Assay (CD69 Hu Blood FACS). The format is cell-based, human. As to conditions: Lymphocyte; human whole blood, anti-IgM activated B lymphocytes, FACS; IC70; Table 2 (unit inferred); read-out: CD69 Hu Blood FACS (IC70). The method, boiled down:
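Compounds tested for blocking B-cell CD69 induction by flow cytometry in human whole blood, with activation via anti-human IgM goat F(ab′)2 crosslinking of surface IgM.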
With `COCCN1CCn2nc(Nc3cc(-c4ccnc(N5CCn6c(cc7c6CC(C)(C)C7)C5=O)c4CO)nn(C)c3=O)cc2C1` [Example 305, 3-[3-(hydroxymethyl)-4-[5-[[5-(2-methoxyethyl)-6,7-dihydro-4H-pyrazolo[1,5-a]pyrazin-2-yl]amino]-1-methyl-6-oxo-pyridazin-3-yl]-2-pyridyl]-7,7-dimethyl-1,2,6,8-tetrahydrocyclopenta[3,4]pyrrolo[3,5-b]pyrazin-4-one], the IC70 turned out to be 83.2 nM.
With `COc1ccc(Nc2cc(-c3ccnc(N4CCn5c(cc6c5CC(C)(C)C6)C4=O)c3CO)cn(C)c2=O)nn1` [Example 306, 3-[3-(hydroxymethyl)-4-[5-[(6-methoxypyridazin-3-yl)amino]-1-methyl-6-oxo-3-pyridyl]-2-pyridyl]-7,7-dimethyl-1,2,6,8-tetrahydrocyclopenta[3,4]pyrrolo[3,5-b]pyrazin-4-one] the figure was 602 nM; with `COCCN1CCn2nc(Nc3cc(-c4ccnc(N5CCc6c(sc7c6CC(C)(C)C7)C5=O)c4CO)cn(C)c3=O)cc2C1` [Example 308, 3-[3-(hydroxymethyl)-4-[5-[[5-(2-methoxyethyl)-6,7-dihydro-4H-pyrazolo[1,5-a]pyrazin-2-yl]amino]-1-methyl-6-oxo-3-pyridyl]-2-pyridyl]-7,7-dimethyl-1,2,6,8-tetrahydrocyclopenta[3,4]thieno[1,3-c]pyridin-4-one], 54.6 nM.
With `COCCCN1CCn2nc(Nc3cc(-c4ccnc(N5CCn6c(cc7c6CC(C)(C)C7)C5=O)c4CO)cn(C)c3=O)cc2C1` [Example 309, 3-[3-(hydroxymethyl)-4-[5-[[5-(3-methoxypropyl)-6,7-dihydro-4H-pyrazolo[1,5-a]pyrazin-2-yl]amino]-1-methyl-6-oxo-3-pyridyl]-2-pyridyl]-7,7-dimethyl-1,2,6,8-tetrahydrocyclopenta[3,4]pyrrolo[3,5-b]pyrazin-4-one] the figure was 39.8 nM.
With `Cc1cc(Nc2cc(-c3ccnc(N4CCn5c(cc6c5CC(C)(C)C6)C4=O)c3CO)cn(C)c2=O)ns1` [Example 310, 3-[3-(hydroxymethyl)-4-[1-methyl-5-[(5-methylisothiazol-3-yl)amino]-6-oxo-3-pyridyl]-2-pyridyl]-7,7-dimethyl-1,2,6,8-tetrahydrocyclopenta[3,4]pyrrolo[3,5-b]pyrazin-4-one] the figure was 119 nM.
With `Cn1cc(-c2ccnc(N3CCn4c(cc5c4CC(C)(C)C5)C3=O)c2CO)cc(Nc2cc(C3CC3)on2)c1=O` [Example 311, 3-[4-[5-[(5-cyclopropylisoxazol-3-yl)amino]-1-methyl-6-oxo-3-pyridyl]-3-(hydroxymethyl)-2-pyridyl]-7,7-dimethyl-1,2,6,8-tetrahydrocyclopenta[3,4]pyrrolo[3,5-b]pyrazin-4-one], the IC70 amounted to 158 nM.
With `Cc1cc(Nc2cc(-c3ccnc(N4CCn5c(cc6c5CC(C)(C)C6)C4=O)c3CO)cn(C)c2=O)nn1C1COC1` [Example 312, 3-[3-(hydroxymethyl)-4-[1-methyl-5-[[5-methyl-1-(oxetan-3-yl)pyrazol-3-yl]amino]-6-oxo-3-pyridyl]-2-pyridyl]-7,7-dimethyl-1,2,6,8-tetrahydrocyclopenta[3,4]pyrrolo[3,5-b]pyrazin-4-one] the figure was 5600 nM; with `CN1Cc2cc(Nc3cc(-c4ccnc(N5CCn6c(cc7c6CC(C)(C)C7)C5=O)c4CO)cn(C)c3=O)nn2CC1=O` [Example 313, 3-[3-(hydroxymethyl)-4-[1-methyl-5-[(5-methyl-6-oxo-4,7-dihydropyrazolo[1,5-a]pyrazin-2-yl)amino]-6-oxo-3-pyridyl]-2-pyridyl]-7,7-dimethyl-1,2,6,8-tetrahydrocyclopenta[3,4]pyrrolo[3,5-b]pyrazin-4-one], 19.1 nM; with `Cn1cc(-c2ccnc(N3CCn4c(cc5c4CC(C)(C)C5)C3=O)c2CO)cc(Nc2ccc(N3CC(O)C3)cn2)c1=O` [Example 314, 3-[4-[5-[[5-(3-hydroxyazetidin-1-yl)-2-pyridyl]amino]-1-methyl-6-oxo-3-pyridyl]-3-(hydroxymethyl)-2-pyridyl]-7,7-dimethyl-1,2,6,8-tetrahydrocyclopenta[3,4]pyrrolo[3,5-b]pyrazin-4-one], 44.6 nM.
The figure for `Cn1nc(Nc2cc(-c3ccnc(N4CCn5c(cc6c5CC(C)(C)C6)C4=O)c3CO)cn(C)c2=O)cc1C(=O)N1CCCC1` [Example 315, 3-[3-(hydroxymethyl)-4-[1-methyl-5-[[1-methyl-5-(pyrrolidine-1-carbonyl)pyrazol-3-yl]amino]-6-oxo-3-pyridyl]-2-pyridyl]-7,7-dimethyl-1,2,6,8-tetrahydrocyclopenta[3,4]pyrrolo[3,5-b]pyrazin-4-one] is 15 nM.
Take `COCc1cc(Nc2cc(-c3ccnc(N4CCn5c(cc6c5CC(C)(C)C6)C4=O)c3CO)cn(C)c2=O)nn1C` [Example 316, 3-[3-(hydroxymethyl)-4-[5-[[5-(methoxymethyl)-1-methyl-pyrazol-3-yl]amino]-1-methyl-6-oxo-3-pyridyl]-2-pyridyl]-7,7-dimethyl-1,2,6,8-tetrahydrocyclopenta[3,4]pyrrolo[3,5-b]pyrazin-4-one]: the IC70 was 20.2 nM.
The figure for `CN1Cc2cc(Nc3cc(-c4ccnc(N5CCc6c(sc7c6CC(C)(C)C7)C5=O)c4CO)cn(C)c3=O)nn2CC1=O` [Example 317, 3-[3-(hydroxymethyl)-4-[1-methyl-5-[(5-methyl-6-oxo-4,7-dihydropyrazolo[1,5-a]pyrazin-2-yl)amino]-6-oxo-3-pyridyl]-2-pyridyl]-7,7-dimethyl-1,2,6,8-tetrahydrocyclopenta[3,4]thieno[1,3-c]pyridin-4-one] is 58.6 nM.
With `C[C@@H]1c2cc(Nc3cc(-c4ccnc(N5CCn6c(cc7c6CC(C)(C)C7)C5=O)c4CO)cn(C)c3=O)nn2CCN1C` [Example 318, (R)-2-(5-((4,5-dimethyl-4,5,6,7-tetrahydropyrazolo[1,5-a]pyrazin-2-yl)amino)-3′-(hydroxymethyl)-1-methyl-6-oxo-1,6-dihydro-[3,4′-bipyridin]-2′-yl)-7,7-dimethyl-2,3,4,6,7,8-hexahydro-1H-cyclopenta[4,5]pyrrolo[1,2-a]pyrazin-1-one] the figure was 108 nM; with `C[C@H]1c2cc(Nc3cc(-c4ccnc(N5CCn6c(cc7c6CC(C)(C)C7)C5=O)c4CO)cn(C)c3=O)nn2CCN1C` [Example 319, (S)-2-(5-((4,5-dimethyl-4,5,6,7-tetrahydropyrazolo[1,5-a]pyrazin-2-yl)amino)-3′-(hydroxymethyl)-1-methyl-6-oxo-1,6-dihydro-[3,4′-bipyridin]-2′-yl)-7,7-dimethyl-2,3,4,6,7,8-hexahydro-1H-cyclopenta[4,5]pyrrolo[1,2-a]pyrazin-1-one], 16.7 nM; with `C[C@@H]1COC[C@H](C)N1C(=O)c1ccc(Nc2cc(-c3ccnc(N4CCn5c(cc6c5CC(C)(C)C6)C4=O)c3CO)cn(C)c2=O)nc1` [Example 320, 3-[4-[5-[[5-[(3S,5R)-3,5-dimethylmorpholine-4-carbonyl]-2-pyridyl]amino]-1-methyl-6-oxo-3-pyridyl]-3-(hydroxymethyl)-2-pyridyl]-7,7-dimethyl-1,2,6,8-tetrahydrocyclopenta[3,4]pyrrolo[3,5-b]pyrazin-4-one], 46.8 nM.
The figure for `C[C@@H]1COC[C@H](C)N1C(=O)c1ccc(Nc2cc(-c3ccnc(N4CCn5c(cc6c5CC(C)(C)C6)C4=O)c3CO)nn(C)c2=O)nc1` [Example 321, 3-[4-[5-[[5-[(3 S,5R)-3,5-dimethylmorpholine-4-carbonyl]-2-pyridyl]amino]-1-methyl-6-oxo-pyridazin-3-yl]-3-(hydroxymethyl)-2-pyridyl]-7,7-dimethyl-1,2,6,8-tetrahydrocyclopenta[3,4]pyrrolo[3,5-b]pyrazin-4-one] is 112 nM; for `C[C@@H]1COC[C@H](C)N1C(=O)c1ccc(Nc2cc(-c3ccnc(N4CCn5c(cc6c5CCCC6)C4=O)c3CO)cn(C)c2=O)nc1` [Example 322, 2-[4-[5-[[5-[(3S,5R)-3,5-dimethylmorpholine-4-carbonyl]-2-pyridyl]amino]-1-methyl-6-oxo-3-pyridyl]-3-(hydroxymethyl)-2-pyridyl]-3,4,6,7,8,9-hexahydropyrazino[1,2-a]indol-1-one] it is 79.6 nM.
In the case of `COC1CN(c2ccc(Nc3cc(-c4ccnc(N5CCn6c(cc7c6CC(C)(C)C7)C5=O)c4CO)cn(C)c3=O)nc2)C1` [Example 323, 3-[3-(hydroxymethyl)-4-[5-[[5-(3-methoxyazetidin-1-yl)-2-pyridyl]amino]-1-methyl-6-oxo-3-pyridyl]-2-pyridyl]-7,7-dimethyl-1,2,6,8-tetrahydrocyclopenta[3,4]pyrrolo[3,5-b]pyrazin-4-one], the IC70 was 279 nM.
For the molecule `C[C@H]1COC[C@H](C)N1C(=O)c1ccc(Nc2cc(-c3ccnc(N4CCn5c(cc6c5CC(C)(C)C6)C4=O)c3CO)nn(C)c2=O)nc1` [Example 324, 3-[4-[5-[[5-[(3 S,5 S)-3,5-dimethylmorpholine-4-carbonyl]-2-pyridyl]amino]-1-methyl-6-oxo-pyridazin-3-yl]-3-(hydroxymethyl)-2-pyridyl]-7,7-dimethyl-1,2,6,8-tetrahydrocyclopenta[3,4]pyrrolo[3,5-b]pyrazin-4-one], the 70% effect concentration (IC70) was found to be 85.8 nM.
In the case of `Cc1nn(C)c2cnc(Nc3cc(-c4ccnc(N5CCn6c(cc7c6CC(C)(C)C7)C5=O)c4CO)cn(C)c3=O)cc12` [Example 325, 3-[4-[5-[(1,3-dimethylpyrazolo[3,4-c]pyridin-5-yl)amino]-1-methyl-6-oxo-3-pyridyl]-3-(hydroxymethyl)-2-pyridyl]-7,7-dimethyl-1,2,6,8-tetrahydrocyclopenta[3,4]pyrrolo[3,5-b]pyrazin-4-one], the IC70 is 1400 nM.
As to `Cc1c2cc(Nc3cc(-c4ccnc(N5CCn6c(cc7c6CC(C)(C)C7)C5=O)c4CO)cn(C)c3=O)ncc2nn1C` [Example 326, 3-[4-[5-[(2,3-dimethylpyrazolo[3,4-c]pyridin-5-yl)amino]-1-methyl-6-oxo-3-pyridyl]-3-(hydroxymethyl)-2-pyridyl]-7,7-dimethyl-1,2,6,8-tetrahydrocyclopenta[3,4]pyrrolo[3,5-b]pyrazin-4-one], the IC70 came out at 1400 nM.
